Results as given in US20240116946A1 (Gilead Sciences, Inc., priority 2022, published 2024).
Where two headings read alike, the source gives them in different places.

Columns and labels:
SARS-CoV-2-NLuc = assay: microbe, parasite or virus in culture; type: cell-based, SARS Coronavirus 2
[1] = biological target: recombinant SARS-CoV-2 Main protease (Mpro) (Severe acute respiratory syndrome coronavirus 2 (2019-nCoV) (SARS-CoV-2), UniProt P0DTD1); assay: Cov Mpro Biochemical IC50 Assay; details: recombinant SARS-CoV-2 Mpro 7.5 nM, fluorogenic peptide substrate 40 μM; read-out: MPro IC50
[2] = Severe acute respiratory syndrome coronavirus, 48 h, read-out: MPro EC50
[3] = Severe acute respiratory syndrome coronavirus, 48 h; read-out: MPro EC50

Structure (SMILES) | EC50 (SARS-CoV-2-NLuc; [2]) [nM] | IC50 [1] [nM] | EC50 (SARS-CoV-2-NLuc; [3]) [nM] | EC50 (SARS-CoV-2-NLuc; read-out: MPro EC50) [nM]
COc1cc(-c2cc3[nH]c(=O)n(-c4cncc5c(C#N)nn(C)c45)c(=O)c3s2)c(Cl)cc1F [Example 977] | 101 | 21.2 |  | 
COc1cc(-c2cc3[nH]c(=O)n(-c4cncc5nccn45)c(=O)c3s2)c(Cl)cc1F [Example 978] |  | 33.4 | 369 | 
COc1cc(-c2cc3c(s2)c(=O)n(-c2cncc4c(C)nn(C)c24)c(=O)n3CCC#N)c(Cl)cc1F [Example 979, 3-(6-(2-chloro-4-fluoro-5-methoxyphenyl)-3-(1,3-dimethyl-1H-pyrazolo[4,3-c]pyridin-7-yl)-2,4-dioxo-3,4-dihydrothieno[3,2-d]pyrimidin-1(2H)-yl)propanenitrile] | 3.07 | 3.71 |  | 
COc1cc(-c2cc3c(s2)c(=O)n(-c2cncc4cnc(C)n24)c(=O)n3CCC#N)c(Cl)cc1F [Example 980] | 10.4 | 7.64 |  | 
COc1cc(-c2cc3c(s2)c(=O)n(-c2cncc(C)c2)c(=O)n3CCC#N)c(Cl)cc1F [Example 981] | 1.39 | 1.38 |  | 
COc1cc(-c2cc3c(s2)c(=O)n(-c2cccnc2)c(=O)n3CCC#N)c(Cl)cc1F [Example 982] | 7.89 | 4.12 |  | 
COc1cc(-c2cc3c(s2)c(=O)n(-c2cncnc2)c(=O)n3CCC#N)c(Cl)cc1F [Example 983] | 23.1 | 6.05 |  | 
Cc1cncc(-n2c(=O)c3sc(-c4ccccc4Cl)cc3n(CCC#N)c2=O)c1 [Example 984] |  | 3.12 | 3.69 | 
COc1cc(-c2cc3c(s2)c(=O)n(-c2cncc(Cl)c2)c(=O)n3CCC#N)c(Cl)cc1F [Example 985] | 6.7 | 2.11 |  | 
COc1cc(-c2cc3c(s2)c(=O)n(-c2cncc(F)c2)c(=O)n3CCC#N)c(Cl)cc1F [Example 986] | 4.39 | 2.37 |  | 
COc1cc(-c2cc3c(s2)c(=O)n(-c2cnccc2C)c(=O)n3CCC#N)c(Cl)cc1F [Example 987, 3-[6-(2-chloro-4-fluoro-5-methoxy-phenyl)-3-(4-methyl-3-pyridyl)-2,4-dioxo-thieno[3,2-d]pyrimidin-1-yl]propanenitrile] | 5.97 | 5.68 |  | 
COc1cc(-c2cc3c(s2)c(=O)n(-c2cnnc(C)c2)c(=O)n3CCC#N)c(Cl)cc1F [Example 988] | 259 | 63.4 |  | 
COc1cc(-c2cc3c(s2)c(=O)n(-c2cccnn2)c(=O)n3CCC#N)c(Cl)cc1F [Example 989] | 19.6 | 7.31 |  | 
COc1cc(-c2cc3c(s2)c(=O)n(-c2cncc4nc(C)n(C5CC5)c24)c(=O)n3CCC#N)c(Cl)cc1F [Example 990] | 14.1 | 4.1 |  | 
COc1cc(-c2cc3c(s2)c(=O)n(-c2cncc4nnn(C(C)C)c24)c(=O)n3CCC#N)c(Cl)cc1F [Example 991] | 49.8 | 16 |  | 
COc1cc(-c2cc3c(s2)c(=O)n(-c2cncc4nc(C5CC5)n(C)c24)c(=O)n3CCC#N)c(Cl)cc1F [Example 992] | 112 | 18.3 |  | 
COc1cc(-c2cc3c(s2)c(=O)n(-c2cncc4ccccc24)c(=O)n3C)c(Cl)cc1F [Example 993, 6-(2-chloro-4-fluoro-5-methoxy-phenyl)-3-(4-isoquinolyl)-1-methyl-thieno[3,2-d]pyrimidine-2,4-dione] |  | 5.63 | 4.38 | 
COc1cc(-c2cc3c(s2)c(=O)n(-c2cncc4cccnc24)c(=O)n3C)c(Cl)cc1F [Example 994] | 8.41 | 8.46 |  | 
COc1cc(-c2cc3c(s2)c(=O)n(-c2cncc4cnn(C5CC5)c24)c(=O)n3CCC#N)c(Cl)cc1F [Example 998] | 6.42 | 8.93 |  | 
COc1cc(-c2cc3c(s2)c(=O)n(-c2cncc4cnn(C)c24)c(=O)n3CCC#N)c(C#N)cc1F [Example 999, 2-(1-(2-cyanoethyl)-3-(1-methyl-1H-pyrazolo[4,3-c]pyridin-7-yl)-2,4-dioxo-1,2,3,4-tetrahydrothieno[3,2-d]pyrimidin-6-yl)-5-fluoro-4-methoxybenzonitrile] |  | 7.15 | 15.7 | 
COc1cc(-c2cc3c(s2)c(=O)n(-c2cncc4nccn24)c(=O)n3CCC#N)c(Cl)cc1F [Example 1000] | 20.1 | 10.6 |  | 

Structure (SMILES) | EC50 (SARS-CoV-2-NLuc; [2]) [nM] | IC50 [1] [nM] | EC50 (SARS-CoV-2-NLuc; [3]) [nM] | EC50 (SARS-CoV-2-NLuc; read-out: MPro EC50) [nM]
COc1cc(-c2cc3c(s2)c(=O)n(-c2cncc4ccccc24)c(=O)n3CCC#N)c(C#N)cc1F [Example 1001, 2-(1-(2-cyanoethyl)-3-(isoquinolin-4-yl)-2,4-dioxo-1,2,3,4-tetrahydrothieno[3,2-d]pyrimidin-6-yl)-5-fluoro-4-methoxybenzonitrile] | 3.11 | 5.04 |  | 
COc1cc(-c2cc3c(s2)c(=O)n(-c2cncc4cnn(C)c24)c(=O)n3CCc2nnn[nH]2)c(Cl)cc1F [Example 1002, 6-(2-chloro-4-fluoro-5-methoxy-phenyl)-3-(1-methylpyrazolo[4,3-c]pyridin-7-yl)-1-[2-(1H-tetrazol-5-yl)ethyl]thieno[3,2-d]pyrimidine-2,4-dione] |  | 33.8 |  | 110
COc1cc(-c2cc3c(s2)c(=O)n(-c2cncc4cnn(C)c24)c(=O)n3C2CC2C#N)c(Cl)cc1F (stereo not shown) [Example 1005, 2-(6-(2-chloro-4-fluoro-5-methoxyphenyl)-3-(1-methyl-1H-pyrazolo[4,3-c]pyridin-7-yl)-2,4-dioxo-3,4-dihydrothieno[3,2-d]pyrimidin-1(2H)-yl)cyclopropane-1-carbonitrile] |  | 38.5 |  | 52.9
COc1cc(-c2cc3[nH]c(=O)n(-c4cncc5cc(C(=O)N(C)C)sc45)c(=O)c3s2)c(Cl)cc1F [Example 1010, 7-[6-(2-chloro-4-fluoro-5-methoxy-phenyl)-2,4-dioxo-1H-thieno[3,2-d]pyrimidin-3-yl]-N,N-dimethyl-thieno[3,2-c]pyridine-2-carboxamide] | 69.2 | 3.29 |  | 
COc1cc(-c2cc3[nH]c(=O)n(-c4cncc5cc(C#N)sc45)c(=O)c3s2)c(Cl)cc1F [Example 1011, 7-[6-(2-chloro-4-fluoro-5-methoxy-phenyl)-2,4-dioxo-1H-thieno[3,2-d]pyrimidin-3-yl]thieno[3,2-c]pyridine-2-carbonitrile] | 81.2 | 14.5 |  | 
Cn1ncc2cncc(-n3c(=O)[nH]c4cc(-c5c(F)ccc6[nH]ncc56)sc4c3=O)c21 [Example 1014, 6-(5-fluoro-1H-indazol-4-yl)-3-(1-methylpyrazolo[4,3-c]pyridin-7-yl)-1H-thieno[3,2-d]pyrimidine-2,4-dione] |  | > 1000 | > 1000 | 
Cc1ccc2nn(C)cc2c1-c1cc2[nH]c(=O)n(-c3cncc4cnn(C)c34)c(=O)c2s1 [Example 1015] | 597 | 50.9 |  | 
COc1cc(-c2sc3c(=O)n(-c4cncc5ccccc45)c(=O)[nH]c3c2C)c(Cl)cc1F [Example 1016] |  | 357 | > 1000 | 
COc1cc(-c2cc3c(s2)c(=O)n(-c2cncc4cnn(C)c24)c(=O)n3CCC#N)c(Cl)cc1Cl [Example 1017, 3-[6-(2,4-dichloro-5-methoxy-phenyl)-3-(1-methylpyrazolo[4,3-c]pyridin-7-yl)-2,4-dioxo-thieno[3,2-d]pyrimidin-1-yl]propanenitrile] |  | 5.92 | 5.25 | 
COc1cc(-c2cc3c(s2)c(=O)n(-c2cncc4cnn(C)c24)c(=O)n3CCC#N)c(C)cc1Cl [Example 1018] | 19.2 | 15 |  | 
COc1cnc(Cl)c(-c2cc3c(s2)c(=O)n(-c2cncc4cnn(C)c24)c(=O)n3CCC#N)c1 [Example 1019, 3-(6-(2-chloro-5-methoxypyridin-3-yl)-3-(1-methyl-1H-pyrazolo[4,3-c]pyridin-7-yl)-2,4-dioxo-3,4-dihydrothieno[3,2-d]pyrimidin-1(2H)-yl)propanenitrile] | 16.3 | 8.48 |  | 
Cc1cnc(Cl)c(-c2cc3c(s2)c(=O)n(-c2cncc4cnn(C)c24)c(=O)n3CCC#N)c1 [Example 1020] | 398 | 107 |  | 
Cn1ncc2cncc(-n3c(=O)c4sc(C5C(Cl)=CC(Cl)=C6OCCC65)cc4n(CCC#N)c3=O)c21 (stereo not shown) [Example 1021] | 37.2 | 15.5 |  | 
COc1cc(-c2cc3c(s2)c(=O)n(-c2cncc(F)c2C)c(=O)n3CCC#N)c(Cl)cc1F [Example 1022, 3-[6-(2-chloro-4-fluoro-5-methoxy-phenyl)-3-(5-fluoro-4-methyl-3-pyridyl)-2,4-dioxo-thieno[3,2-d]pyrimidin-1-yl]propanenitrile] |  | 7.3 | 9.53 | 
Cc1c(F)cncc1-n1c(=O)c2sc(-c3ccccc3Cl)cc2n(CCC#N)c1=O [Example 1023] |  | 19.3 | 59.3 | 
Cc1cc(Cl)c(-c2cc3c(s2)c(=O)n(-c2cncc4cnn(C)c24)c(=O)n3CCC#N)cc1Cl [Example 1024] | 35.4 | 9.7 |  | 
Cn1ncc2cncc(-n3c(=O)c4sc(-c5ccc(C#N)cc5Cl)cc4n(CCC#N)c3=O)c21 [Example 1025] | 244 | 86.4 |  | 
COc1cc(-c2cc3c(s2)c(=O)n(-c2cncc(C#CC(C)(C)O)c2)c(=O)n3CCC#N)c(Cl)cc1F [Example 1038, 3-(6-(2-chloro-4-fluoro-5-methoxyphenyl)-3-(5-(3-hydroxy-3-methylbut-1-yn-1-yl)pyridin-3-yl)-2,4-dioxo-3,4-dihydrothieno[3,2-d]pyrimidin-1(2H)-yl)propanenitrile] |  | 1.28 | 5.69 | 
COc1cc(-c2cc3c(s2)c(=O)n(-c2cncc(C#CC(C)(C)S(C)(=O)=O)c2)c(=O)n3CCC#N)c(Cl)cc1F [Example 1039] | 57.1 | 11.7 |  | 
COc1cc(-c2cc3c(s2)c(=O)n(-c2cncc(C#N)c2)c(=O)n3CCC#N)c(Cl)cc1F [Example 1040, 5-(6-(2-chloro-4-fluoro-5-methoxyphenyl)-1-(2-cyanoethyl)-2,4-dioxo-1,4-dihydrothieno[3,2-d]pyrimidin-3(2H)-yl)nicotinonitrile] |  | 4.64 | 9.66 | 
